Results taken from article PMC8508963 (2021).

Assays:
Test in all cases: fluorescence titration and Job plot
[1] = system: ds12 (DNA, duplex) CGCGAATTCGCG; settings: 100 mM K+ (KCl) plus 20 mM potassium phosphate; pH 7, 20 °C, Job total 2 µM; lowest fluorescence enhancement
[2] = system: M2 (DNA, G4) TAGGGACGGGCGGGCAGGGT; settings: 100 mM K+ (KCl) plus 20 mM potassium phosphate; pH 7, 20 °C, Job total 2 µM; medium fluorescence enhancement
[3] = system: m-tel24 (DNA, G4) TTGGGTTAGGGTTAGGGTTAGGGA; settings: 100 mM K+ (KCl) plus 20 mM potassium phosphate; pH 7, 20 °C, Job total 2 µM; highest fluorescence; groove binding suggested by induced CD

Measured: binding

CN(C)CCCNC(=O)c1ccc2[nH]c3c([nH]c2c1)c1c(=O)n(CCCN(C)C)c(=O)c2ccc4c(=O)n(CCCN(C)C)c(=O)c3c4c21
yes: all assays above
